The source of these data is patent US20080020076A1, “Methods and Therapies for Potentiating a Therapeutic Action of an Alpha-2 Adrenergic Receptor Agonist and Inhibiting and/or Reversing Tolerance to Alpha-2 Adrenergic Receptor Agonists” (priority 2006, published 2008).

Structures are written as SMILES.

One test has as its system alpha-2 adrenoceptors. Conditions: versus yohimbine; cited from earlier work.
The test system of test [1] is alpha-2 adrenergic receptor. Put plainly: acute tolerance to spinal L-norepinephrine analgesia, paw pressure test. It counts as in vivo, rat. The method, then:
(§1) The effect of normal saline (20 μl) was also evaluated by injection at 90 minute intervals. Pain responses were evaluated in the tail flick and paw pressure test at 30 minute intervals.
(§2) Experiments were conducted using adult male Sprague-Dawley rats (Charles River, St. Constant, QC, Canada) weighing between 200-250 grams. Animals were housed individually in standard laboratory cages, maintained on a 12-hour light/dark cycle, and provided with food and water ad libitum. The surgical placement of chronic indwelling intrathecal catheters (polyethylene PE 10 tubing, 7.5 cm) into the spinal subarachnoid space was made under 4% halothane anesthesia, using the method of Yaksh and Rudy Physiol. Behav. 1976 7:1032-1036). Specifically, the anesthetized animal was placed prone in a stereotaxic frame, a small incision made at the back of the neck, and the atlanto-occipital membrane overlying the cisterna magna was exposed and punctured with a blunt needle. The catheter was inserted through the cisternal opening and slowly advanced caudally to position its tip at the lumbar enlargement. The rostral end of the catheter was exteriorized at the top of the head and the wound closed with sutures. Animals were allowed 3-4 days recovery from surgery and only those free from neurological deficits, such as the hindlimb or forelimb paralysis or gross motor dysfunction, were included in the study. All drugs were injected intrathecally as solutions dissolved in physiological saline (0.9%) through the exteriorized portion of the catheter at a volume of 10 μl, followed by a 10 μl volume of 0.9% saline to flush the catheter.
(§3) The paw pressure test (Loomis et al., Pharm. Biochem. 1987 26:131-139) was used to measure the response to a mechanical nociceptive stimulus. Pressure was applied to the dorsal surface of the hind paw using an inverted air-filled syringe connected to a gauge and the value at which the animal withdrew its paw was recorded. A maximum cutoff pressure of 300 mmHg was used to avoid tissue damage.
(§4) For the in vivo studies, tail flick and paw pressure values were converted to a maximum percentage effect (M.P.E.): M.P.E.=100×[post-drug response−baseline response]/[maximum response−baseline response]. Data represented in the figures are expressed as mean (±S.E.M.). The ED50 values were determined using a non-linear regression analysis (Prism 2, GraphPad Software Inc., San Diego, Calif., USA). Statistical significance (p<0.05, 0.01. or 0.001) was determined using a one-way analysis of variance followed by a Student Newman-Keuls post hoc test for multiple comparisons between groups.

Test [2] has as its system alpha-2 adrenergic receptor. Briefly: paw pressure test (mechanical antinociception), intrathecal drugs. It counts as in vivo, rat. The method, then: as §2, §3
A single injection of clonidine was administered intrathecally and the response measured in the tail flick and paw pressure test. […] Following drug administration, nociceptive testing was performed every 10 minutes for the first 60 minutes and every 30 minutes for the following 120-150 minute period. Results for atipemazole are depicted in FIG. 1A (tail flick) and FIG. 1B (paw pressure).
as §4

The test system of test [3] is alpha-2 adrenergic receptor. Put plainly: tail flick test (thermal antinociception), intrathecal drugs. It is filed as in vivo, rat. The method, then: as §2, with “Animals were allowed 3-4 days recovery from surgery and only those free from neurological deficits, such as the hindlimb or forelimb paralysis or gross motor dysfunction, were included in the study. All drugs were injected intrathecally as solutions dissolved in physiological saline (0.9%) through the exteriorized portion of the catheter at a volume of 10 μl, followed by a 10 μl volume of 0.9% saline to flush the catheter.” left out
The tail flick test (D'amour & Smith, J. Pharmacol. Exp. Ther. 1941 72:74-79) was used to measure the response to a thermal nociceptive stimulus. Radiant heat was applied to the distal third of the animal's tail and the response latency for tail withdrawal from the source was recorded using an analgesia meter (Owen et al., J. Pharmacol. Methods 1981 6:33-37)). […]
A single injection of clonidine was administered intrathecally and the response measured in the tail flick and paw pressure test. […]
as §4
For orientation: In hot-plate and tail-flick tests a longer latency is read as antinociception.

In test [4] the test system is alpha-2 adrenergic receptor. The description is as above. It is filed as in vivo, rat. This is another data set of the same source.
Test [5] has as its system alpha-2 adrenergic receptor. Put plainly: acute tolerance to spinal L-norepinephrine analgesia, tail flick test. It is filed as in vivo, rat. The protocol: as §1, §2
The tail flick test (D'amour & Smith, J. Pharmacol. Exp. Ther. 1941 72:74-79) was used to measure the response to a thermal nociceptive stimulus. Radiant heat was applied to the distal third of the animal's tail and the response latency for tail withdrawal from the source was recorded using an analgesia meter (Owen et al., J. Pharmacol. Methods 1981 6:33-37)). The stimulus intensity was adjusted to yield baseline response latencies between 2-3 seconds. To minimize tail damage, a cutoff of 10 seconds was used as an indicator of maximum antinociception.
as §4

The mark [6] stands for this setting: 24 hours after treatment, atipemazole 0.008 or 0.8 ng combined with norepinephrine.
Where [7] appears, read: atipemazole 0.8 ng with L-norepinephrine 30 μg, three intrathecal injections at 90 minute intervals.
Where [8] appears, read: atipemazole 0.008 or 0.8 ng combined with norepinephrine, x3, 24 hours after.
[9] abbreviates: combination of norepinephrine 30 μg and atipemazole 0.8 ng, x3 at 90 minute intervals.
Where [10] appears, read: atipemazole 0.08 ng with L-norepinephrine 30 μg intrathecal.
Setting [11] is: atipemazole 0.0008, 0.008 and 0.08 ng with clonidine 50 nmoles intrathecal.
Where [12] appears, read: atipemazole 1, 5, 10 μg co-administered with clonidine 200 nmoles intrathecal.
Setting [13] is: clonidine 50 nmoles (13.3 μg) intrathecal, alone.
Setting [14] is: clonidine 50 nmoles (13.3 μg) intrathecal, alone, listed as Clonidine.
Where [15] appears, read: clonidine 200 nmoles intrathecal, alone.
The mark [16] stands for this setting: 24 hours after three successive injections of norepinephrine alone.
The mark [17] stands for this setting: norepinephrine alone, 30 μg x3 at 90 minute intervals.
Where [18] appears, read: single spinal dose of norepinephrine (30 μg), alone.
[19] abbreviates: yohimbine 0.0002, 0.005 and 0.02 ng with clonidine 50 nmoles (13.3 μg) intrathecal.

For `CCC1(c2cnc[nH]2)Cc2ccccc2C1` [atipemazole], in the test on alpha-2 adrenoceptors, the “potency as a displacer of clonidine relative to yohimbine” value is given as “about 100 times”. Besides, the “rightward shift of the L-norepinephrine cumulative dose-response curve” value in test [1] (setting [6]) and in test [5] (setting [6]) was “prevented” each time. Further, the “effect on decline of norepinephrine analgesia on repeated injection” value in test [1] (setting [7]) and in test [5] (setting [7]) was “inhibited the decline of norepinephrine analgesia” each time. Further, the “effect on increase of L-norepinephrine ED50” value in test [1] (setting [8]) and in test [5] (setting [8]) was “completely prevented the increase in ED50 values” throughout. For the same compound, the “analgesic response at 240 minutes, after the third dose” value in test [1] (setting [9]) and in test [5] (setting [9]) was “sustained the maximal analgesic level” each time. For the same compound, the “effect on norepinephrine analgesia” value in test [2] (setting [10]) and in test [4] (setting [10]) was “extended norepinephrine analgesia” throughout. Besides, the “effect on clonidine analgesic response” value in test [2] (setting [11]) and in test [4] (setting [11]) was “significantly augmented” in each case. Moreover, the “effect on clonidine response” value in test [2] (setting [12]) was “decreased clonidine response in the paw pressure test but only at the highest dose”. In addition, the results for the “effect on peak clonidine analgesia” value in test [3] (atipemazole 10 μg (highest dose) with clonidine 200 nmoles intrathecal) and in test [3] (setting [12]) were “almost abolishing the response” and “dose-related decrease”, respectively. Besides, the “dose antagonizing the analgesic action of clonidine” value in test [3] (intrathecal, co-administered with clonidine 200 nmoles) is “greater than 1 microgram”.

Regarding `Clc1cccc(Cl)c1N=C1NCCN1` [clonidine], the analgesic response entry in test [2] (setting [13]) was “submaximal analgesic response”; in test [2] (setting [14]) it was “submaximal analgesia”; in test [2] (setting [15]), “a lesser effect”; in test [4] (setting [13]), “submaximal analgesic response”; in test [4] (setting [14]), “submaximal analgesia”; in test [4] (setting [15]), “maximal analgesic response”.

`NC[C@H](O)c1ccc(O)c(O)c1` [norepinephrine, L-norepinephrine]: the “L-norepinephrine ED50 versus saline control group” value in test [1] (setting [16]) and in test [5] (setting [16]) was “increased significantly” each time. The “analgesic response at 240 minutes, after the third dose” value in test [1] (setting [17]) and in test [5] (setting [17]) was “significantly declined towards pre-drug baseline value” each time. Also, the “time at which analgesia terminated” value in test [2] (setting [18]) and in test [4] (setting [18]) was 180 min in each case. In addition, the “time of peak analgesia” value in test [2] (setting [18]) and in test [4] (setting [18]) was 30 min in each case.

As to `COC(=O)[C@@H]1[C@H]2C[C@H]3c4[nH]c5ccccc5c4CCN3C[C@@H]2CC[C@@H]1O` [yohimbine], the “effect on clonidine analgesic response” value in test [2] (setting [19]) and in test [4] (setting [19]) was “significantly augmented” throughout.
